US20260297031A1, “HYDROXYLAMINE-BASED BCR-ABL1 INHIBITORS FOR TREATMENT OF CANCER” (University of Georgia Research Foundation, Inc., priority 2023, published 2026)
Read-outs that look alike come from different tables or passages of the source.

Experiments:
Caco-2 permeability = settings: human
Procedure: Caco-2 Permeability (Independently Performed by Pharmaron Inc., Ningbo, CN)
To each well of the Transwell insert and reservoir were added 50 μL and 25 mL of cell culture medium, respectively. […] Following this, the Caco-2 plate was removed from the incubator and the monolayer washed twice with pre-warmed HBSS (10 mM HEPES, pH 7.4).
To determine the rate of drug transport in the apical to basolateral direction, 125 μL of the working solution of either test compounds or control compounds was added to the Transwell insert (apical compartment) and a 50 μL sample was immediately transported from the apical compartment to 200 μL of acetonitrile containing internal standard (100 nM alprazolam, 200 nM Caffeine and 100 nM tolbutamide) in a new 96-well plate as the initial donor sample (A-B). The sample was then vortexed at 1,000 rpm for 10 min. The receiver plate (basolateral compartment) wells were then filled with 235 μL of transport buffer. To determine the rate of drug transport in the basolateral to apical direction, 285 μL of the working solution of either test compounds or control compounds was added to the receiver plate wells (basolateral compartment) and a 50 μL sample was immediately transferred from the basolateral compartment to 200 μL of acetonitrile containing internal standard in a new 96-well plate as the initial donor sample (B-A). The sample was vortexed at 1,000 rpm for 10 min. The Transwell insert (apical compartment) was then filled with 75 μL of transport buffer and the apical to basolateral direction and the basolateral to apical direction were done at the same time. […] After incubation, 50 μL samples from donor sides (apical compartment for Ap→BI flux, and basolateral compartment for BI→Ap) and receiver sides (basolateral compartment for Ap→BI flux, and apical compartment for BI→Ap) were transferred to wells of a new 96-well plate, followed by the addition of 200 μL acetonitrile containing internal standard. All samples were vortexed for 10 min and then centrifuged at 3,220 g for 40 min. A 150 μL aliquot of the supernatant was then mixed with an appropriate volume of ultra-pure water prior to LC-MS/MS analysis.
To monitor for monolayer integrity, Lucifer yellow leakage was determined after the 2 h transport period. This began by preparing a stock solution of Lucifer yellow in DMSO which was diluted with HBSS (10 mM HEPES, pH 7.4.) to reach a final concentration of 100 μM. To each Transwell insert (apical compartment) was then added 100 μL of the Lucifer yellow solution, followed by filling the wells in the receiver plate (basolateral compartment) with 300 μL of HBSS (10 mM HEPES, pH 7.4).
The efflux ratio was determined using the following equation: […]

[1] = Metabolic stability in human liver microsomes; format: in vitro ADME; settings: human liver microsomes
Procedure: Metabolic Stability in Liver Microsomes (Independently Performed by Pharmaron Inc., Ninqbo, CN)
This experiment was carried out under two separate set of conditions: i) with Cofactors (NADPH), which consisted of adding 25 μL of 10 mM NADPH to the incubations, giving a final NADPH concentration of 1 mM, and ii) without Cofactors (NADPH), which consisted of adding 25 μL of 100 mM phosphate buffer to the incubations. Under both sets of conditions, the final concentration of microsomes were 0.5 mg/mL. […] Samples were then centrifuged at 3,220 g for 40 min and aliquots of 100 μL of the supernatant were mixed with 100 μL of ultra-pure H2O and analyzed by LC-MS/MS.
Peak areas were determined from extracted ion chromatograms. The slope value, k, was determined by linear regression of the natural logarithm of the remaining percentage of the parent drug vs incubation time curve.

[2] = Metabolic stability in rat hepatocytes; format: in vitro ADME; settings: rat hepatocytes
Procedure: (§1) All calculations were carried out using Microsoft Excel. Peak areas were determined from extracted ion chromatograms.

BCR-ABL1 wt = biological target: T1, BCR-ABL1 wt (Homo sapiens, UniProt P00519); assay: KinaseProfiler radiometric kinase assay, BCR-ABL1 wt; format: biochemical; settings: [ATP] = 10 μM; mean of n = 2
T1 construct: called BCR-ABL1 in the text

BCR-ABL1 T315I = biological target: T2, BCR-ABL1 T315I (Homo sapiens, UniProt P00519, T315I); assay: KinaseProfiler radiometric kinase assay, BCR-ABL1 T315I; format: biochemical; settings: [ATP] = 10 μM; mean of n = 2
T2 construct: BCR (fusion partner, as the printed name BCR-ABL1 says)

[3] = Plasma protein binding by equilibrium dialysis, rat plasma; format: in vitro ADME; settings: plasma, 5 μM, read-out: fu, plasma %
Procedure: Plasma Protein Binding by Equilibrium Dialysis (Independently Performed by Pharmaron Inc., Ninqbo, CN)
Initially, 1 mM solutions of test compounds and the control compound (Ketoconzaole) were prepared in DMSO. After this, dialysis membranes were soaked in ultrapure water for 60 min to separate strips, followed by 20% aq. ethanol for 20 min, and finally in a dialysis buffer for 20 min. […] After this, 597 μL of blank plasma solution followed by 3 μL of the working solutions of either test compounds or control compound were added to a new plastic plate or separate plastic tube and the solutions were vortexed at 1,000 rpm for 2 min. Immediately after this, 50 μL of spiked plasma solution suspension was transferred to a 96-well plate to act as T=0 control. The remaining samples were treated in the same manner, whereby all remaining spiked plasma solutions were added to the incubator for the duration of the study.
Cells were then loaded with 120 μL of the plasma samples and dialyzed against an equal volume of dialysis buffer (PBS). […] At the end of incubation, the lid was removed and 50 μL of post-dialysis samples were removed from both buffer and plasma solution chambers into a separate 96-well plate for analysis. The plasma solutions (50 μL) were then added to the buffer samples along with an equal volume of PBS (50 μL) to the collected plasma solution samples. The plate was shaken at 1,000 rpm for 2 min and 400 μL of acetonitrile containing an appropriate internal standard was added to precipitate protein and release compound. The samples were then vortexed at 1,000 rpm for an additional 10 min followed by centrifugation at 3,220 g for 30 min. […] The samples were analyzed by LC-MS/MS and 100 μL of distilled water was added to each sample prior to analysis.
Concentrations of test compounds and control compound in buffer and plasma solution chambers was determined and percentages of test compounds and control compound bound using the following equations (mean of n=2 replicates): […]

hERG channel = hERG channel (Homo sapiens, UniProt Q12809); assay: hERG safety evaluation by manual patch-clamp system
hERG channel, sequence (Q12809 whole entry): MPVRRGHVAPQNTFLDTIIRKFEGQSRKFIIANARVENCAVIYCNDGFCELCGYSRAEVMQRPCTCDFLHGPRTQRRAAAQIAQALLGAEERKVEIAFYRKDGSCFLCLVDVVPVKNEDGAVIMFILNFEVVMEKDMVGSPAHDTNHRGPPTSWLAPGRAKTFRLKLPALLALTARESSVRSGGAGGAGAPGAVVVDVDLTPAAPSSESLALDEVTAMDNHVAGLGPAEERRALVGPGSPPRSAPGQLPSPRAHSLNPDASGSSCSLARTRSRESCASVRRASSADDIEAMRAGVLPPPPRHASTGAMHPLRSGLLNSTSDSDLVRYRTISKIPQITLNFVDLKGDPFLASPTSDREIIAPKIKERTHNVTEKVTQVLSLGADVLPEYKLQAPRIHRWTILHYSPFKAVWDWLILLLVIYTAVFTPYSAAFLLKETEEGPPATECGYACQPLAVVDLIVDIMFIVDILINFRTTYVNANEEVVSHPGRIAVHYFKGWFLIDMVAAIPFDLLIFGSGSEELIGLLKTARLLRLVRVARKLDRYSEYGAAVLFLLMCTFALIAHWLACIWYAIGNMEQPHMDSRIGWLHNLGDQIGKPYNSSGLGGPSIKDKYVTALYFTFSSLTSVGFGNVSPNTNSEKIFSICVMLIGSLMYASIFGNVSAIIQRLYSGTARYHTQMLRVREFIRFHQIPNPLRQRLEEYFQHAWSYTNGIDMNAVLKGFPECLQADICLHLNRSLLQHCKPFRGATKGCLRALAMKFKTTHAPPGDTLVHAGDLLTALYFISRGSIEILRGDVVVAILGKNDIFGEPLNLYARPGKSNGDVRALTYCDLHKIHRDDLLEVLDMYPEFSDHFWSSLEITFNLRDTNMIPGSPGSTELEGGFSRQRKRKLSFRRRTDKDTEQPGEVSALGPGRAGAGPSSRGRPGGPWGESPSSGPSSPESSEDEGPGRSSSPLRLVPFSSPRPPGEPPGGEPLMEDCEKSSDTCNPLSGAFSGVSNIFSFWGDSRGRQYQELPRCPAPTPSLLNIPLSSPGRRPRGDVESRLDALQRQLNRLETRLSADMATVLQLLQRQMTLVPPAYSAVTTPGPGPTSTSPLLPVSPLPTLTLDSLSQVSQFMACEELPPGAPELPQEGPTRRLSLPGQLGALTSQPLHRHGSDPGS

[4] = Metabolic stability in mouse hepatocytes; format: in vitro ADME; settings: read-out: Remaining Percentages
Procedure: as §1

Structure (SMILES): COc1cc(Nc2c(C#N)cnc3cc(OCCON4CCN(C)CC4)c(OC)cc23)c(F)cc1Cl [Compound 15, 4-((4-chloro-2-fluoro-5-methoxyphenyl)amino)-6-methoxy-7-(2-((4-methylpiperazin-1-yl)oxy)ethoxy)quinoline-3-carbonitrile]
- Papp A→B at 2 h, 5 µM (Caco-2 permeability): 1.9 ×10⁻⁶ cm/s
- half-life at 1 µM [1]: 4.3 min
- microsomal CLint at 1 µM ([1]; read-out: LMCIint (rate of metabolism)): 321 µL/min/mg
- half-life [2]: 12.3 min
- hepatocyte CLint ([2]; read-out: HEPCIint (rate of metabolism)): 113 µL/min/1e6 cells
- IC50 (BCR-ABL1 wt): 1 nM
- IC50 (BCR-ABL1 T315I): 166 nM
- fraction unbound at 6 h, 5 µM [3]: 0.049

Structure (SMILES): COc1cc2c(Nc3cccc(OC)c3Cl)c(C#N)cnc2cc1OCCON1CCN(C)CC1 [Compound 17, 4-((2-Chloro-3-methoxyphenyl)amino)-6-methoxy-7-(2-((4-methylpiperazin-1-yl)oxy)ethoxy)quinoline-3-carbonitrile]
- hERG liability, in words (hERG channel): minimal hERG inhibition

Structure (SMILES): COc1cc(Cl)ccc1Nc1c(C#N)cnc2cc(OCCON3CCN(C)CC3)c(OC)cc12 [Compound 20, 4-((4-Chloro-2-methoxyphenyl)amino)-6-methoxy-7-(2-((4-methylpiperazin-1-yl)oxy)ethoxy)quinoline-3-carbonitrile]
- remaining at 0.5 min ([4]; 0.5 min): 100%
- remaining at […] ([4]; 15 min): 55.5%
- remaining at 0.5 h ([4]; 30 min): 28.6%
- remaining at 1 h ([4]; 60 min): 13.3%
- remaining at […] ([4]; 90 min, BLOD = below level of detection): 6.75%
- remaining at 2 h ([4]; 120 min, BLOD = below level of detection): 2.89%
